Legend:
[1] = tested on: HCT116 human colorectal cancer cells; assay: Tumorigenicity assay, HCT116 xenografts in nude mice; format: in vivo; conditions: for Effect with C. novyi-NT / Effect alone: nude mice; for Effect alone: agent alone
Description: (§1) All animal protocols were designed in accordance with the Guide for the Care and Use of Laboratory Animals (NIH Publication 86-23) and were approved by the Johns Hopkins University Institutional Animal Care and Use Committee. Six to eight week old mice were implanted subcutaneously on one flank with 3 to 6 million cancer cells. Establishment of tumors of 150 to 500 mm3 took 8 to 21 days, depending on the cell type. C. novyi-NT spores (300×106) and anti-microtubule agents were generally administered by a single intravenous injection through the tail vein in a total volume of 300 to 500 ul phosphate-buffered saline (PBS). Quantitative assessment of tumor growth was performed by measuring subcutaneous tumor grafts (major and minor axis) using electronic calipers. Tumor volume was calculated using the equation: length×width2×0.5. Progression free survival was defined as the length of time following treatment before any increase in tumor volume was observed. Mice were considered “cured” if no tumor was evident three months after treatment. Animals were weighed at least twice a week and carefully observed for signs of toxicity every day for the first week following treatment and then twice a week thereafter. At least five mice were used for each treatment arm described in the Experimental Results.
The timing, route, and dose of agents are critical for the success of any experimental therapy. When two agents are combined, the number of variables that must be tested increases exponentially. To simplify interpretation of the comparisons between various anti-microtubule agents, pilot studies with representative drugs were performed.
Eighteen agents known to interact with microtubules were each tested in this manner in nude mice harboring xenografts of HCT116 human colorectal cancer cells. At least five mice harboring tumors of 150 to 500 mm3 in size were used for each experimental arm. Two classes of responses were noted. One type of response was characterized by a rapid hemorrhagic necrosis, observed only with agents that inhibited microtubule […] (FIG. 1A, B). The other type of response was characterized by a slow regression, observed with agents that stabilized microtubules (FIG. 2A, B).

[2] = tested on: HuCC-T1 cholangiocarcinoma; assay: Tumorigenicity assay, HuCC-T1 xenografts; format: in vivo, nude mice
Description: as §1
We next evaluated the responses to COBALT/HTI-286 in other murine tumor models. […]

[3] = Mortality following COBALT; format: in vivo, nude mice; conditions: deaths within one week, pooled xenograft models
Description: as §1
(§2) This toxicity was observed only when the combination of C. novyi-NT spores and the drugs was administered and not with either the bacteria or the drugs alone. […] Though major tumor regressions were common, few mice died as a result of therapy (Table 2) No deaths occurred after treatment with the microtubule stabilizers plus C. novyi-NT, while 4% to 8% of mice treated with microtubule destabilizers plus C. novyi-NT died. The only other toxicity observed was transient weight loss (Table 3). Mice treated with the drugs alone lost ˜5 to 10% of their body weight within 7 days, while weight loss after treatment with C. novyi-NT plus these drugs varied from 8% to 18%. All weights recovered to pre-treatment levels within two weeks.

Weight loss after COBALT = format: in vivo, nude mice; conditions: drug dose 60.0 mg/kg; maximum average weight loss relative to weight one day prior to treatment; HCT116 xenografts
Description: as §1, §2

CCC(=O)O[C@H]1C[C@H]2OC[C@@]2(OC(C)=O)[C@H]2[C@H](OC(=O)c3ccccc3)[C@]3(O)C[C@H](OC(=O)[C@H](O)[C@@H](NC(=O)OC(C)(C)C)c4ccco4)C(C)=C([C@@H](O)C(=O)[C@]12C)C3(C)C [MAC-321, 5β,20-epoxy-1,2α-,4-,7β-,10β-,13α-hexahydroxytax-11-en-9-one 4 acetate 2 benzoate 7 propionate 13-ester with (2R,3S)—N-tertbutoxycarbonyl-3-(2-furyl)isoserine]
Effect with C. novyi-NT ([1]; 10 mg/kg × 1 (iv) with 3×108 C. novyi-NT spores iv): ++ (10% to 50% shrinkage in tumor volume relative to pre-treatment size) | Effect with C. novyi-NT ([1]; 45 mg/kg × 1 (iv) with 3×108 C. novyi-NT spores iv): ++++ (>20% cures) | Effect with C. novyi-NT ([1]; 50 mg/kg × 1 (iv) with 3×108 C. novyi-NT spores iv): ++++ (>20% cures) | Effect with C. novyi-NT ([1]; 60 mg/kg × 1 (iv) with 3×108 C. novyi-NT spores iv): ++++ (>20% cures) | Effect with C. novyi-NT ([1]; 70 mg/kg × 1 (iv) with 3×108 C. novyi-NT spores iv): ++++ (>20% cures) | Effect alone ([1]; 10 mg/kg × 1 (iv)): + | Effect alone ([1]; 45 mg/kg × 1 (iv)): +++ (>50% shrinkage in tumor volume relative to pre-treatment size) | Effect alone ([1]; 50 mg/kg × 1 (iv)): +++ (>50% shrinkage in tumor volume relative to pre-treatment size) | Effect alone ([1]; 60 mg/kg × 1 (iv)): +++ (>50% shrinkage in tumor volume relative to pre-treatment size) | Effect alone ([1]; 70 mg/kg × 1 (iv)): +++ (>50% shrinkage in tumor volume relative to pre-treatment size) | mice cured (in words) ([1]; cured = no tumor evident three months after treatment): no mice | mice cured (number of mice) [2]: one of eight | # dead (treatment-related deaths) ([3]; drug dose 45.0 mg/kg): 0 | # dead (treatment-related deaths) ([3]; drug dose 50.0 mg/kg): 0 | # dead (treatment-related deaths) ([3]; drug dose 60.0 mg/kg): 0 | # dead (treatment-related deaths) ([3]; drug dose 70.0 mg/kg): 0 | Weight Loss (%) (Weight loss after COBALT): 5.5%

Reference: patent US8007782B2, “Combination bacteriolytic therapy for the treatment of tumors” (priority 2003, dated 2011)
